Results: US20260013502A1, “METHOD FOR TERMINATING COVER CROP GROWTH” (SUMITOMO CHEMICAL COMPANY, LIMITED, priority 2022, published 2026)
Values joined by “and” are separate entries in the source; they are usually repeats but may differ in a detail not shown here. Equal entries are not always repeated. Structures can show the parent of a compound that is named as a salt.

What was measured:
[1] = test system: cereal rye (Secale cereale); assay: Example 9: outdoor pot test, foliar application, termination of cereal rye growth; format: in vivo; settings: glyphosate-potassium salt 1,543 g/ha; for Growth termination date / Date at the beginning of the onset of effect: cereal rye, outdoors, applied 24 days after seeding, epyrifenacil/saflufenacil 20 g/ha; for Growth termination date: death of terminal and lateral buds in all 7 pots; for Date at the beginning of the onset of effect: visual change in leaf color in all 7 pots, day relative to application; for Incremental dry matter weight: cereal rye above-ground parts, average dry matter weight at growth termination minus average untreated dry matter weight 24 days after seeding (7 pots), epyrifenacil 20 g/ha
Protocol: (§1) A plastic pot was filled with soil, and cereal rye (Secale cereale) was seeded and grown outdoors. Twenty-four days after seeding, RoundupPowerMax was diluted with water, and then the cereal rye was subjected to foliar application from above using an automatic sprayer at a spray volume of 200 L/ha to achieve an application rate of 1,543 g/ha as glyphosate-potassium salt.
(§2) At the same time, the cereal rye was similarly seeded in another plastic pot and grown. Twenty-four days after seeding, epyrifenacil emulsifiable concentrate (55 g/L) or saflufenacil suspension (341 g/L) was diluted with water containing 1% (v/v) adjuvant Agri-Dex, and then the cereal rye was subjected to foliar application from above using an automatic sprayer at a spray volume of 200 L/ha to achieve an application rate of 20 g/ha.
At the same time, the cereal rye was similarly seeded in another plastic pot and grown. Twenty-four days after seeding, the above-ground parts were harvested and the dry matter weight (hereinafter referred to as untreated dry matter weight) was measured.
(§3) The cereal rye applied with the herbicide was grown outdoors after application with the herbicide, and in case the growth was terminated, the above-ground parts were harvested at termination of the growth and the dry matter weight was measured. In this test, the growth was judged to be terminated when death of terminal and lateral buds was visually confirmed. The date at the beginning of the onset of effect, the growth termination date, and the dry matter weight at the time of growth termination are shown in Table 3. The onset of the effect was judged by visually observing the change in leaf color. Application with each herbicide was performed using seven pots. The date at the beginning of the onset of effect and the growth termination date in the table were dates on which the onset of effect and growth termination were confirmed in all seven pots, respectively. The incremental dry matter weight was the value calculated by the following formula (1).
(§4) Incremental dry matter weight=average dry matter weight at the time of growth termination−average untreated dry matter weight 24 days after seeding Formula (1): • Average dry matter weight at the time of growth termination: average value of dry matter weights of 7 pots at the time of growth termination • Average untreated dry matter weight 24 days after seeding: average value of untreated dry matter weights of 7 pots

[2] = test system: cereal rye (Secale cereale); assay: Example 7: greenhouse pot test, foliar application, termination of cereal rye growth; format: in vivo; settings: for Dry matter weight: cereal rye above-ground parts at growth termination, average of 3 pots
Protocol: as §1, with “in a greenhouse. Fifteen” for “outdoors. Twenty-four”
as §2, with “and grown. Twenty-one days after” for “and grown. Twenty-four days after”, “rate of 25 g/ha.” for “rate of 20 g/ha.”
(§5) After application with the herbicide, the cereal rye was grown in a greenhouse, and in case the growth was terminated, the above-ground parts were harvested at termination of the growth and the dry matter weight was measured. In this test, the growth was judged to be terminated when death of terminal and lateral buds was visually confirmed. The date at the beginning of the onset of effect, the growth termination date, and the dry matter weight at the time of growth termination are shown in Table 1. The onset of the effect was judged by visually observing the change in leaf color. Application with each herbicide was performed using three pots. The date at the beginning of the onset of effect and the growth termination date in the table were dates on which the onset of effect and growth termination were confirmed in all three pots, respectively. The dry matter weight was the average of the three pots.

[3] = test system: cereal rye (Secale cereale); assay: Example 1: outdoor boom-sprayer foliar application to overwintered cereal rye at heading stage; format: in vivo; settings: 40 g/ha epyrifenacil, EC 55 g/L, 0.5% MSO + 1% ammonium sulfate, 189 L/ha
Protocol: At the heading stage of cereal rye (Secale cereale) seeded in the autumn and overwintered outdoors after corn cultivation, epyrifenacil emulsifiable concentrate (55 g/L) was diluted with water containing 0.5% (v/v) adjuvant MSO+1% (w/v) ammonium sulfate, and the cereal rye is subjected to foliar application using a boom sprayer at a spray volume of 189 L/ha to deliver 40 g/ha of epyrifenacil.

radish (Tillage Radish) = assay: Example 2: outdoor boom-sprayer foliar application to overwintered radish at bolting stage; format: in vivo, Raphanus sativus; settings: 20 g/ha epyrifenacil, EC 55 g/L, 0.5% Agri-Dex + 1% ammonium sulfate, 150 L/ha
Protocol: (§6) At the bolting stage of radish (Tillage Radish) seeded in the autumn and overwintered outdoors after soybean cultivation, epyrifenacil emulsifiable concentrate (55 g/L) was diluted with water containing 0.5% (v/v) adjuvant Agri-Dex+1% (w/v) ammonium sulfate, and the radish is subjected to foliar application using a boom sprayer at a spray volume of 150 L/ha to deliver 20 g/ha of epyrifenacil.

[4] = test system: edible radish (Daikon Radish); assay: Example 8: greenhouse pot test, foliar application, termination of radish growth; format: in vivo, Raphanus sativus; settings: for Dry matter weight: radish entire plant at growth termination, average of 3 pots; for Growth termination date / Date at the beginning of the onset of effect: epyrifenacil 25 g/ha applied 21 days after seeding, glyphosate-potassium salt 1,543 g/ha applied 15 days after seeding; for Date at the beginning of the onset of effect: visual change in leaf color in all 3 pots, day relative to application
Protocol: as §1, with “edible radish (Daikon Radish)” for “cereal rye (Secale cereale)”, “in a greenhouse. Fifteen” for “outdoors. Twenty-four”, “radish” for “cereal rye”
(§7) At the same time, the radish was similarly seeded in another plastic pot and grown. Twenty-one days after seeding, epyrifenacil emulsifiable concentrate (55 g/L) was diluted with water containing 1% (v/v) adjuvant Agri-Dex, and then the radish was subjected to foliar application from above using an automatic sprayer at a spray volume of 200 L/ha to achieve an application rate of 25 g/ha.
as §5, with “radish” for “cereal rye”, “entire plant was dug up” for “above-ground parts were harvested”, “2.” for “1.”

barley (Hordeum vulgare) = assay: Example 3: outdoor boom-sprayer foliar application to overwintered barley at internode elongation stage; format: in vivo; settings: 30 g/ha epyrifenacil, EC 55 g/L, 0.5% Agri-Dex + 1% ammonium sulfate, 250 L/ha
Protocol: as §6, with “internode elongation” for “bolting”, “barley (Hordeum vulgare)” for “radish (Tillage Radish)”, “in a corn cultivation trace,” for “after soybean cultivation,”, “barley” for “radish”, “250” for “150”, “30” for “20”

[5] = test system: edible radish (Daikon Radish); assay: Example 10: outdoor pot test, foliar application, termination of radish growth; format: in vivo, Raphanus sativus; settings: outdoors, applied 24 days after seeding, epyrifenacil 20 g/ha, glyphosate-potassium salt 1,543 g/ha; for Growth termination date: death of terminal and lateral buds in all 7 pots; for Date at the beginning of the onset of effect: visual change in leaf color in all 7 pots, day relative to application
Protocol: as §1, with “edible radish (Daikon Radish)” for “cereal rye (Secale cereale)”, “radish” for “cereal rye”, “1, 543” for “1,543”
as §7, with “Twenty-four” for “Twenty-one”, “[…]” for “1%”, “20” for “25”
At the same time, the radish was similarly seeded in another plastic pot and grown. Twenty-four days after seeding, the entire plant was dug up and the dry matter weight (hereinafter referred to as untreated dry matter weight) was measured.
as §3, with “radish” for “cereal rye”, “entire plant was dug up” for “above-ground parts were harvested”, “4.” for “3.”, “(2).” for “(1).”
as §4, with “(2):” for “(1):”

[6] = cereal rye, greenhouse, death of terminal and lateral buds in all 3 pots, epyrifenacil/saflufenacil 25 g/ha applied 21 days after seeding, glyphosate-potassium salt 1,543 g/ha applied 15 days after seeding
[7] = epyrifenacil 25 g/ha, glyphosate-potassium salt 1,543 g/ha
[8] = epyrifenacil 25 g/ha, glyphosate-potassium salt 1,543 g/ha, listed as epyrifenacil
[9] = radish, greenhouse, death of terminal and lateral buds in all 3 pots
[10] = listed as glyphosate-potassium salt

SMILES | Growth termination date [1] | Date at the beginning of the onset of effect [1] | Growth termination date [2, 6] | Death of the cereal rye observed [3] | Death of the radish observed (radish (Tillage Radish)) | Dry matter weight [4, 7] | Dry matter weight [4, 8] | Growth termination date [4, 9] | Date at the beginning of the onset of effect ([4]; radish, greenhouse) | Dry matter weight [2, 7] | Dry matter weight [2, 8] | Death of the barley observed (barley (Hordeum vulgare)) | Growth termination date [5] | Date at the beginning of the onset of effect [5] | Incremental dry matter weight [1] | Incremental dry matter weight [1, 10] | Growth termination date [1, 10] | Growth termination date (days after application) ([4]; radish, greenhouse, death of terminal and lateral buds in all 3 pots, epyrifenacil 25 g/ha, glyphosate-potassium salt 1,543 g/ha) | Growth termination date (days after application) ([2]; cereal rye, greenhouse, death of terminal and lateral buds in all 3 pots, epyrifenacil 25 g/ha, glyphosate-potassium salt 1,543 g/ha) | Date at the beginning of the onset of effect ([2]; cereal rye, greenhouse, visual change in leaf color in all 3 pots, day relative to application, epyrifenacil/saflufenacil 25 g/ha applied 21 days after seeding, glyphosate-potassium salt 1,543 g/ha applied 15 days after seeding)
CC(C)N(C)S(=O)(=O)NC(=O)c1cc(-n2c(=O)cc(C(F)(F)F)n(C)c2=O)c(F)cc1Cl [Saflufenacil, saflufenacil] | failed to terminate the growth | Day after | failed to terminate the growth | – | – | – | – | – | – | – | – | – | – | – | – | – | – | – | – | –
CCOC(=O)COc1ncccc1Oc1cc(-n2c(=O)cc(C(F)(F)F)n(C)c2=O)c(F)cc1Cl [Epyrifenacil, epyrifenacil] | 7 Days after application and 7 Days Days after application | Day after | 24 Days Days after seeding | 4 days after application | 3 days after application | 905 kg/ha | biomass was greater | 24 Days after Days after seeding | On the day of | 1,118 kg/ha | biomass was greater | 4 days after application | 7 Days after application and 7 Days after Days after application | Day after | – | – | – | – | – | –
O=C(O)CNCP(=O)(O)O [Glyphosate-potassium salt, glyphosate-potassium salt] | 21 Days Days after application | 7 Days after Days after application | 24 Days Days after seeding | – | – | 360 kg/ha | – | 24 Days after Days after seeding | 7 Days after Days after application | 595 kg/ha | – | – | failed to terminate the growth | 10 Days Days after application | −42 Kg/ha | reduced biomass | 21 Days after application | seeding (9 days after application | seeding (9 days after application | 5 Days after Days after application
